Laboratory results reported in patent US20260364184A1, “COMPOUND BASED ON OXOISOINDOLINYL-SUBSTITUTED TETRAHYDROPYRIMIDINE-DIONE AND USE THEREOF” (GLUETACS THERAPEUTICS (SHANGHAI) CO., LTD., priority 2023, published 2026).

Assays:
[1] = biological target: T1, human Cereblon WT GST-tagged protein (CRBN) (Homo sapiens, UniProt Q96SW2); test: CRBN binding by HTRF (Cereblon binding kit); conditions: for inhibition at 0.5 µM: read-out: Inhibition Rate at 0.5 μM (%); for inhibition at 2 µM: read-out: Inhibition Rate at 2 μM (%)
T1 construct: purchased CISBIO 64BDCRBNPEH
T1 sequence (Q96SW2 whole entry): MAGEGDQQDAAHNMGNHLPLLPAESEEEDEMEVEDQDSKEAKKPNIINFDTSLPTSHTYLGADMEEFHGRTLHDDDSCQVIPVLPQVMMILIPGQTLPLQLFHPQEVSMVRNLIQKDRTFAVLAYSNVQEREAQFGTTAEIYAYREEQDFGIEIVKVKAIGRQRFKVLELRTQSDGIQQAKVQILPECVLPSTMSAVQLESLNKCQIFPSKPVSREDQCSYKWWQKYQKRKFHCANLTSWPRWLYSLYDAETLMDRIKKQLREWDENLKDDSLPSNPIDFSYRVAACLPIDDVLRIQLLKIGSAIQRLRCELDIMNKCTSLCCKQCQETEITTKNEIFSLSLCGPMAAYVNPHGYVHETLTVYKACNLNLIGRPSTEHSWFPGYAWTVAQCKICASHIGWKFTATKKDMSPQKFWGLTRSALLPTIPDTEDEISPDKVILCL
Procedure: The CEREBLON BINDING kits (specification: 10,000 tests; product number: Catalog #64BDCRBNPEH; CISBIO company) was used to determine the CRBN binding ability of the compounds to be tested through a HTRF method (homogeneous time-resolved fluorescence). The specific methods are as follows: • 1. According to the instructions of the CEREBLON BINDING KITS, serial dilutions were performed for the test compounds of the present disclosure (including the compounds in Table 1, Table 2, and Examples 1-468) and for lenalidomide. Specifically, diluent #9 (1×) solution was used as the diluent, and multiple concentration gradients were set. The dilution operation can be performed according to one of the following two methods: • (1) The first dilution method: The test compounds of the present disclosure (including the compounds in Table 1, Table 2, and Examples 1-468) were subjected to 5-fold serial dilutions starting from a highest concentration of 40 μM, resulting in a total of 7 concentrations from high to low (40, 8, 1.6, 0.32, 0.064, 0.0128, 0.00256 μM). Subsequently, the diluted test compounds and corresponding detection reagents were added to each well of a 96-well plate, resulting in final test compound concentrations of 10, 2, 0.4, 0.08, 0.016, 0.0032, and 0.00064 μM, respectively. • (2) As an alternative, a second dilution method can be used: The test compounds of the present disclosure (including the compounds in Table 1, Table 2, and Examples 1-468) were subjected to 4-fold gradient dilutions starting from a highest concentration of 8 μM, resulting in 2 concentrations (8 μM, 2 μM). Into the 96-well plate, the diluted test compounds and corresponding detection reagents were added, resulting in final test compound concentrations of 2 μM and 0.5 μM, respectively. The experimental procedure is described below using the diluted 8 μM test compound and lenalidomide solutions as examples. • 2. 2.5 μL of the above 8 μM of the tested compounds and lenalidomide solution, as well as the same volume of diluent #9 (1×) solution (solvent control group, Std0) were added to each well of a 96-well plate, respectively. Then, 2.5 μL of human Cereblon WT GST-tagged protein solution was added to each well. Finally, 5 μL of the thoroughly mixed Thalidomide-Re reagent and GST Eu antibody working solution were added to each of the aforementioned wells. The final concentration of the tested compounds and lenalidomide in each well was 2 μM. • 3. The blank control wells were sequentially added with 2.5 μL of diluent #9 (1×) solution, 2.5 μL of PROTAC binding buffer, and 5 μL of thoroughly mixed Thalidomide-Re reagent and GST Eu antibody working solution. • 4. After sealing and incubating the solutions in the aforementioned wells at room temperature for 3 hours, the absorbance values at emission wavelengths of 620 nm and 665 nm were detected by the HTRF method using a Spark microplate reader (V3.1 SP1).
The corresponding CRBN binding inhibition rate was calculated using the following method:
Rcompound=OD 665 nmcompound/OD 620 nmcompound−OD 665 nmcontrol/OD 620 nmcontrol
RStd0=OD 665 nmStd0/OD 620 nmStd0−OD 665 nmcontrol/OD 620 nmcontrol inhibition rate (%)=(1−Rcompound/RStd0)*100
Note: OD 665 nmcompound is the absorbance value of each well of the compounds to be tested of the present disclosure at an emission wavelength of 665 nm. OD 620 nmcompound is the absorbance value of each well of the compounds to be tested of the present disclosure at an emission wavelength of 620 nm. OD 665 nmcontrol is the absorbance value of the blank control well at an emission wavelength of 665 nm. OD 620 nmcontrol is the absorbance value of the blank control well at an emission wavelength of 620 nm. OD 665 nmStd0 is the absorbance value of the solvent control well at an emission wavelength of 665 nm. OD 620 nmStd0 is the absorbance value of the solvent control well at an emission wavelength of 620 nm.

[2] = biological target: T2, IRAK4 (Homo sapiens, UniProt Q9NWZ3); test: Western blot degradation of IRAK4; assay type: cell-based; conditions: hPBMC Cell; 24 hours
T2 construct: expression of target proteins in cells; endogenous in cells
T2 sequence (Q9NWZ3 1-460): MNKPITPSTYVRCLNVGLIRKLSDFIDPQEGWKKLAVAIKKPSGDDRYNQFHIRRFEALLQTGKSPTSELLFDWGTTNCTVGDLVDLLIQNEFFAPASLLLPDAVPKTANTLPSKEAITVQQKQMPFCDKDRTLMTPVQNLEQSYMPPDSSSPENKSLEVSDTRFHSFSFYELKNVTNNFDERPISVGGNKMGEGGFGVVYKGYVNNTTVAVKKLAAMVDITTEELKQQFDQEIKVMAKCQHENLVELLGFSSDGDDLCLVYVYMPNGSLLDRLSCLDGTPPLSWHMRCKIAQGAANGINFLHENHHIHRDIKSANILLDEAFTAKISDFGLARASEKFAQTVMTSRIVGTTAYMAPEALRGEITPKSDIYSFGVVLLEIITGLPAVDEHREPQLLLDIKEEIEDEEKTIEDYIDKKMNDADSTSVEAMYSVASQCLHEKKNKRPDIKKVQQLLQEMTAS
Method in brief: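 Cells treated with compound, lysed, and target protein detected by Western blot (SDS-PAGE, nitrocellulose transfer). DC50 taken as the concentration giving band grayscale half that of DMSO control, estimated by concentration-response fitting; remaining protein (%) from target band normalised to internal control band; degradation (%) = 1 − remaining.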

[3] = test system: Human Multiple myeloma cell line (MM.1S); test: Inhibition of MM.1S cell proliferation (CellTiter luminescent viability); assay type: cell-based; conditions: Homo sapiens, MM1.S, Table IG1, FAK inhibitor-based, 96 hours
Method in brief: (§1)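 Cells are seeded in 96-well plates, cultured at 37 °C, 5% CO2, and treated next day with 5-fold serial compound dilutions (stock series from 2000 μM; 0.5 μL into 100 μL medium). Viability is read by CellTiter-Meiluncell luminescence after the set exposure, and IC50 is taken from growth-inhibition curves.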

[4] = test system: Human myeloid monocytic leukemia cell line (MV-4-11); test: Inhibition of MV-4-11 cell proliferation (CellTiter luminescent viability); assay type: cell-based; conditions: Homo sapiens, MV4-11, Table IG2, FAK inhibitor-based, 96 hours
Method in brief: as §1

Row | inhibition at 0.5 µM ([1]; 0.5 μM) | inhibition at 2 µM ([1]; 2 μM) | Compound | also measured
1 | 10 to 20% | 53 to 60% | Cn1ncc(Cl)c1-c1cc(C(=O)N[C@H](CNCC2CCN(c3cccc4c3C(=O)N(N3CCC(=O)NC3=O)C4=O)CC2)Cc2cccc(F)c2)sc1Cl [GT-08587, (S)-5-chloro-4-(4-chloro-1-methyl-1H-pyrazol-5-yl)-N-(1-(((1-(2-(2,4-dioxotetrahydropyrimidin-1(2H)-yl)-1,3-dioxoisoindolin-4-yl)piperidin-4-yl)methyl)amino)-3-(3-fluorophenyl)propan-2-yl)thiophene-2-carboxamide] | 
2 | 10 to 20% | 60 to 80% | O=C1CCN(N2Cc3cc(CN4CCN(c5ccn6c(n5)nc5ccccc56)CC4)ccc3C2=O)C(=O)N1 [GT-08565, 1-(5-((4-(benzo[4,5]imidazo[1,2-a]pyrimidin-2-yl)piperazin-1-yl)methyl)-1-oxoisoindolin-2-yl)dihydropyrimidine-2,4 (1H,3H)-dione] | 
3 | 10 to 20% | 53 to 60% | Cc1cc(-c2ccc3c4cnccc4n(C)c3c2)cnc1N1CCN(Cc2ccc3c(c2)CN(N2CCC(=O)NC2=O)C3=O)CC1 [GT-08540, 1-(5-((4-(3-methyl-5-(5-methyl-5H-pyrido[4,3-b]indol-7-yl)pyridin-2-yl)piperazin-1-yl)methyl)-1-oxoisoindolin-2-yl)dihydropyrimidine-2,4 (1H,3H)-dione] | 
4 | 30 to 40% | 60 to 80% | Cn1c2ccncc2c2ccc(-c3cnc(N4CCN(Cc5ccc6c(c5)CN(N5CCC(=O)NC5=O)C6=O)CC4)c(Cl)c3)cc21 [GT-08541, 1-(5-((4-(3-chloro-5-(5-methyl-5H-pyrido[4,3-b]indol-7-yl)pyridin-2-yl)piperazin-1-yl)methyl)-1-oxoisoindolin-2-yl)dihydropyrimidine-2,4 (1H,3H)-dione] | 
5 | 20 to 30% | 53 to 60% | O=C1CCN(N2C(=O)c3ccc(N4CC5CCC4CN5CC4CCN(c5ccn6c(n5)nc5ccccc56)CC4)cc3C2=O)C(=O)N1 (centres unmarked) [GT-08828, 5-(5-((1-(benzo[4,5]imidazo[1,2-a]pyrimidin-2-yl)piperidin-4-yl)methyl)-2,5-diazabicyclo[2.2.2]octan-2-yl)-2-(2,4-dioxotetrahydropyrimidin-1(2H)-yl)isoindoline-1,3-dione] | 

The next lines start with the compound.

Row | Compound | inhibition at 0.5 µM ([1]; 0.5 μM) | inhibition at 2 µM ([1]; 2 μM) | also measured
6 | CN(Cc1ccc(-c2[nH]c3cc(F)cc4c3c2CCNC4=O)cc1)Cc1ccc2c(c1)CN(N1CCC(=O)NC1=O)C2=O [GT-08403, 1-(5-(((4-(8-fluoro-1-oxo-2,3,4,6-tetrahydro-1H-azepino[5,4,3-cd]indol-5-yl)benzyl)(methyl)amino)methyl)-1-oxoisoindolin-2-yl)dihydropyrimidine-2,4(1H,3H)-dione] | 20 to 30% | 53 to 60% | 
7 | CN(C)C(=O)c1cc2cnc(Nc3ccc(N4CCC(CN5CC6CC(C5)N6c5ccc6c(c5)C(=O)N(N5CCC(=O)NC5=O)C6=O)CC4)cn3)nc2n1C1CCCC1 [GT-05201, 7-cyclopentyl-2-((5-(4-((6-(2-(2,4-dioxotetrahydropyrimidin-1(2H)-yl)-1,3-dioxoisoindolin-5-yl)-3,6-diazabicyclo[3.1.1]heptan-3-yl)methyl)piperidin-1-yl)pyridin-2-yl)amino)-N,N-dimethyl-7H-pyrrolo[2,3-d]pyrimidine-6-carboxamide] |  |  | Inhibition Rate at 0.5 μM (%) ([1]; 0.5 μM): a3 (30% < a3 ≤ 40%); Inhibition Rate at 2 μM (%) ([1]; 2 μM): a5 (53% < a5 ≤ 60%)
8 | O=C1CCN(N2C(=O)c3ccc(N4CC5CCC4CN5C[C@H]4CC[C@H](n5cc(NC(=O)c6cnn7ccc(N8C[C@H]9C[C@@H]8CO9)nc67)c(C(F)F)n5)CC4)cc3C2=O)C(=O)N1 [GT-05833, 5-((1R,4R)-2-oxa-5-azabicyclo[2.2.1]heptan-5-yl)-N-(3-(difluoromethyl)-1-((1r,4R)-4-((5-(2-(2,4-dioxotetrahydropyrimidin-1(2H)-yl)-1,3-dioxoisoindolin-5-yl)-2,5-diazabicyclo[2.2.2]octan-2-yl)methyl)cyclohexyl)-1H-pyrazol-4-yl)pyrazolo[1,5-a]pyrimidine-3-carboxamide] | 40 to 53% | 60 to 80% | Degradation of substrate protein IRAK4 (substrate protein remaining %) [2]: A (0%≤substrate protein remaining %≤80%)
9 | CNC(=O)c1ccccc1Nc1cc(Nc2ccc(N3CCN(Cc4ccc5c(c4)CN(N4CCC(=O)NC4=O)C5=O)CC3)cc2OC)ncc1C(F)(F)F [GT-07660, 2-((2-((4-(4-((2-(2,4-dioxotetrahydropyrimidin-1(2H)-yl)-1-oxoisoindolin-5-yl)methyl)piperazin-1-yl)-2-methoxyphenyl)amino)-5-(trifluoromethyl)pyridin-4-yl)amino)-N-methylbenzamide] | 30 to 40% | 60 to 80% | inhibition at 0.01 µM ([3]; 10 nM, read-out: Inhibition Rate at 10 nM (%)): 15 to 20%; inhibition at 0.5 µM ([3]; 500 nM, read-out: Inhibition Rate at 500 nM (%)): 60 to 80%; inhibition at 0.01 µM ([4]; MV-4-11, 10 nM, read-out: Inhibition Rate at 10 nM (%)): 50 to 60%; inhibition at 0.5 µM ([4]; MV-4-11, 500 nM, read-out: Inhibition Rate at 500 nM (%)): 80 to 100%
